From US9687545B2, “Nonspecific immunostimulator composition, method of preparation the same, and its use” (BARODON-S.F.CORP., priority 2014, dated 2017) come the findings set out here.

This assay concerns highly pathogenic AIV H5N1. Type of assay: in vivo, BALB/C mice. Conditions: for body weight change after challenge: challenged groups treated with BARODON or TamiFlu, 2 weeks.

Read-outs that look alike come from different tables or passages of the source.

For the compound `CCOC(=O)C1=C[C@@H](OC(CC)CC)[C@H](NC(C)=O)[C@@H](N)C1` [TamiFlu], the “body weight change after challenge” value was “none of the groups treated with TamiFlu and BARODON exhibited weight gain after challenge”. The survival rate (TamiFlu 10 mg/kg/day orally for 5 days after challenge, by D12) is recorded as 75%. Further, where the note is “listed as TamiFlue”, the “body weight change after challenge” value is “no difference in weight change between groups”.
